Values of other authors in patent US10799550B2, “Oral compositions comprising beta-escin for reducing acetaldehyde toxicity” (ESCILAB SP. Z O.O., priority 2016, dated 2020).

Test system: ethanol absorption
Settings: rats

Row | SMILES | effect on ethanol absorption
1 | C/C=C(\C)C(=O)O[C@H]1[C@H](OC(C)=O)[C@]2(CO)[C@H](O)C[C@]3(C)C(=CC[C@@H]4[C@@]5(C)CC[C@H](O[C@@H]6O[C@H](C(=O)O)[C@@H](O[C@@H]7O[C@H](CO)[C@@H](O)[C@H](O)[C@H]7O)[C@H](O)[C@H]6O[C@@H]6O[C@H](CO)[C@@H](O)[C@H](O)[C@H]6O)[C@](C)(CO)[C@@H]5CC[C@]43C)[C@@H]2CC1(C)C [escin Ia] | inhibitory effect
2 | C/C=C(/C)C(=O)O[C@H]1[C@H](OC(C)=O)[C@]2(CO)[C@H](O)C[C@]3(C)C(=CC[C@@H]4[C@@]5(C)CC[C@H](O[C@@H]6O[C@H](C(=O)O)[C@@H](O[C@@H]7O[C@H](CO)[C@@H](O)[C@H](O)[C@H]7O)[C@H](O)[C@H]6O[C@@H]6O[C@H](CO)[C@@H](O)[C@H](O)[C@H]6O)[C@](C)(CO)[C@@H]5CC[C@]43C)[C@@H]2CC1(C)C [escin Ib] | inhibitory effect
3 | C/C=C(\C)C(=O)O[C@H]1[C@H](OC(C)=O)[C@]2(CO)[C@H](O)C[C@]3(C)C(=CC[C@@H]4[C@@]5(C)CC[C@H](O[C@@H]6O[C@H](C(=O)O)[C@@H](O[C@@H]7O[C@H](CO)[C@@H](O)[C@H](O)[C@H]7O)[C@H](O)[C@H]6O[C@@H]6OC[C@@H](O)[C@H](O)[C@H]6O)[C@](C)(CO)[C@@H]5CC[C@]43C)[C@@H]2CC1(C)C [escin IIa] | inhibitory effect
4 | C/C=C(/C)C(=O)O[C@H]1[C@H](OC(C)=O)[C@]2(CO)[C@H](O)C[C@]3(C)C(=CC[C@@H]4[C@@]5(C)CC[C@H](O[C@@H]6O[C@H](C(=O)O)[C@@H](O[C@@H]7O[C@H](CO)[C@@H](O)[C@H](O)[C@H]7O)[C@H](O)[C@H]6O[C@@H]6OC[C@@H](O)[C@H](O)[C@H]6O)[C@](C)(CO)[C@@H]5CC[C@]43C)[C@@H]2CC1(C)C [escin IIb] | inhibitory effect
